Biological target: T1, hFXR (Homo sapiens, UniProt Q96RI1)
T1 construct: expressed in transfected cells; host or cells: CV-1 cells
T1 sequence (Q96RI1 1-486): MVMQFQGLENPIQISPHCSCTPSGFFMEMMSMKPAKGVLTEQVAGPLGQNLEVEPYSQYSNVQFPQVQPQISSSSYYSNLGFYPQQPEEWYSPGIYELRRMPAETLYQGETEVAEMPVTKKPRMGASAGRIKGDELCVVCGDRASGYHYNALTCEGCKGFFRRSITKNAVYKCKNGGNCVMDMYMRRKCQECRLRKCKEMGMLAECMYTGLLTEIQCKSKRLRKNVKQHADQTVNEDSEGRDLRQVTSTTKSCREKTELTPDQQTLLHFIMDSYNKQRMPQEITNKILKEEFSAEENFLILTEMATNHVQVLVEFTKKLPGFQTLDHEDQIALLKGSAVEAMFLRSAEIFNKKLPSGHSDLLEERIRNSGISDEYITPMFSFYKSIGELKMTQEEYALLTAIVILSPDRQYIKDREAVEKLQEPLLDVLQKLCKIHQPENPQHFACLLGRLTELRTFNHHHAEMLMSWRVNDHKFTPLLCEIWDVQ
T1 sequence (P19793 1-462 partner): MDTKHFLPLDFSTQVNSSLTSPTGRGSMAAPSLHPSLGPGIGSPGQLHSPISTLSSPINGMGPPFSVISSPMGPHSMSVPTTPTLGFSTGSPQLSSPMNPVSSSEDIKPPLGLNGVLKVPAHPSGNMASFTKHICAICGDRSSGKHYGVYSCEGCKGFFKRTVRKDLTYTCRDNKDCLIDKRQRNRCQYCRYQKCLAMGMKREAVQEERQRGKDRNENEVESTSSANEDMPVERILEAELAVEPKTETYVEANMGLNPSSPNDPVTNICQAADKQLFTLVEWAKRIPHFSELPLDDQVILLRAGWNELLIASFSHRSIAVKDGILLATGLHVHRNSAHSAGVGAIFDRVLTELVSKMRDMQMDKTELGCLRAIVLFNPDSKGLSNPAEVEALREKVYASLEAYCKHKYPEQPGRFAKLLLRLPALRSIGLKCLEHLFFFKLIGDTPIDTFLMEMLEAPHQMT
Experiment: In Vitro FXR Assay (TK): TK-ECRE-luc reporter in transfected CV-1 cells
Assay type: cell-based
Conditions: 18 hrs, luminescence, maximum efficacy of <25% of the Fexarmine control classified as '+'
Method in brief: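 CV-1, transient co-transfection: hFXR + hRXR + TK-ECRE-luc + pCMX-YFP; charcoal-stripped serum. 18 h post-transfection, DMSO serial dilutions of cpd added; 18 h incubation; lysis, luminescence.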

EC50, ≤ 250 nM:
COc1ccc([C@H]2CC[C@H](CN(c3cccc(-c4cnn(C5CC5)c4)c3)C(=O)[C@H]3CC[C@H](OC(=O)N4CC(O)C4)CC3)CC2)nc1C [Compound 4.26, trans-4-((3-(1-Cyclopropyl-1H-pyrazol-4-yl)phenyl)((trans-4-(5-methoxy-6-methylpyridin-2-yl)cyclohexyl)methyl)carbamoyl)cyclohexyl 3-hydroxyazetidine-1-carboxylate]
COc1ccc([C@H]2CC[C@H](CN(c3cc(-c4cnn(C5CC5)c4)ccn3)C(=O)[C@H]3CC[C@H](OC(=O)N4CC(O)C4)CC3)CC2)cc1C [Compound 4.27, trans-4-((4-(1-Cyclopropyl-1H-pyrazol-4-yl)pyridin-2-yl)((trans-4-(4-methoxy-3-methylphenyl)cyclohexyl)methyl)carbamoyl)cyclohexyl 3-hydroxyazetidine-1-carboxylate]
COc1ccc([C@H]2CC[C@H](CN(c3cccc(-c4cnn(C5CC5)c4)c3)C(=O)[C@H]3CC[C@H](OC(=O)N4CC(CSC)C4)CC3)CC2)cc1C [Compound 4.28, trans-4-((3-(1-Cyclopropyl-1H-pyrazol-4-yl)phenyl)((trans-4-(4-methoxy-3-methylphenyl)cyclohexyl)methyl)carbamoyl)cyclohexyl 3-((methylthio)methyl)azetidine-1-carboxylate]
CCNC(=O)O[C@H]1CC[C@H](C(=O)N(C[C@H]2CC[C@H](c3ccc(OC)c(C#N)c3)CC2)c2cc(-c3cnn(C(C)C)c3)ccn2)CC1 [Compound 5, trans-4-(((trans-4-(3-Cyano-4-methoxyphenyl)cyclohexyl)methyl)(4-(1-isopropyl-1H-pyrazol-4-yl)pyridin-2-yl)carbamoyl)cyclohexyl ethylcarbamate]
CNC(=O)O[C@H]1CC[C@H](C(=O)N(C[C@H]2CC[C@H](c3ccc(OC)c(C)c3)CC2)c2cc(-c3cnc(C4CC4)s3)ccn2)CC1 [Compound 5.01, trans-4-((4-(2-Cyclopropylthiazol-5-yl)pyridin-2-yl)((trans-4-(4-methoxy-3-methylphenyl)cyclohexyl)methyl)carbamoyl)cyclohexyl methylcarbamate]
CNC(=O)O[C@H]1CC[C@H](C(=O)N(C[C@H]2CC[C@H](c3ccc(OC)c(C)c3)CC2)c2cc(-c3cnc(C(C)C)s3)ccn2)CC1 [Compound 5.02, trans-4-((4-(2-Isopropylthiazol-5-yl)pyridin-2-yl)((trans-4-(4-methoxy-3-methylphenyl)cyclohexyl)methyl)carbamoyl)cyclohexyl methylcarbamate]
CNC(=O)O[C@H]1CC[C@H](C(=O)N(C[C@H]2CC[C@H](c3ccc(OC)c(C)n3)CC2)c2cc(-c3cnc(C4CC4)s3)ccn2)CC1 [Compound 5.03, trans-4-((4-(2-Cyclopropylthiazol-5-yl)pyridin-2-yl)((trans-4-(5-methoxy-6-methylpyridin-2-yl)cyclohexyl)methyl)carbamoyl)cyclohexyl methylcarbamate]
CNC(=O)O[C@H]1CC[C@H](C(=O)N(C[C@H]2CC[C@H](c3ccc(OC)c(C)n3)CC2)c2cc(-c3cnc(C(C)C)s3)ccn2)CC1 [Compound 5.04, trans-4-((4-(2-Isopropylthiazol-5-yl)pyridin-2-yl)((trans-4-(5-methoxy-6-methylpyridin-2-yl)cyclohexyl)methyl)carbamoyl)cyclohexyl methylcarbamate]
CNC(=O)O[C@H]1CC[C@H](C(=O)N(C[C@H]2CC[C@H](c3ccc(OC)c(C#N)c3)CC2)c2cc(-c3cnc(C4CC4)s3)ccn2)CC1 [Compound 5.05, trans-4-(((trans-4-(3-Cyano-4-methoxyphenyl)cyclohexyl)methyl)(4-(2-cyclopropylthiazol-5-yl)pyridin-2-yl)carbamoyl)cyclohexyl methylcarbamate]
CNC(=O)O[C@H]1CC[C@H](C(=O)N(C[C@H]2CC[C@H](c3ccc(OC)c(C#N)n3)CC2)c2cccc(-c3cnc(C4CC4)s3)c2)CC1 [Compound 5.06, trans-4-(((trans-4-(6-Cyano-5-methoxypyridin-2-yl)cyclohexyl)methyl)(3-(2-cyclopropylthiazol-5-yl)phenyl)carbamoyl)cyclohexyl methylcarbamate]
CNC(=O)O[C@H]1CC[C@H](C(=O)N(C[C@H]2CC[C@H](c3ccc(OC)c(C#N)n3)CC2)c2cc(-c3cnc(C4CC4)s3)ccn2)CC1 [Compound 5.07, trans-4-(((trans-4-(6-Cyano-5-methoxypyridin-2-yl)cyclohexyl)methyl)(4-(2-cyclopropylthiazol-5-yl)pyridin-2-yl)carbamoyl)cyclohexyl methylcarbamate]
CNC(=O)O[C@H]1CC[C@H](C(=O)N(C[C@H]2CC[C@H](c3ccc(OC)c(C)n3)CC2)c2cccc(-c3cnc(C(C)C)s3)c2)CC1 [Compound 5.08, trans-4-((3-(2-Isopropylthiazol-5-yl)phenyl)((trans-4-(5-methoxy-6-methylpyridin-2-yl)cyclohexyl)methyl)carbamoyl)cyclohexyl methylcarbamate]
CNC(=O)O[C@H]1CC[C@H](C(=O)N(C[C@H]2CC[C@H](c3ccc(N(C)C)nc3)CC2)c2cccc(-c3cnn(C4CC4)c3)c2)CC1 [Compound 5.09, trans-4-((3-(1-Cyclopropyl-1H-pyrazol-4-yl)phenyl)((trans-4-(6-(dimethylamino)pyridin-3-yl)cyclohexyl)methyl)carbamoyl)cyclohexyl methylcarbamate]
CNC(=O)O[C@H]1CC[C@H](C(=O)N(C[C@H]2CC[C@H](c3ccc(OC)c(C)c3)CC2)c2cccc(-c3cnn(C(C)C)c3)c2)CC1 [Compound 5.10, trans-4-((3-(1-Isopropyl-1H-pyrazol-4-yl)phenyl)((trans-4-(4-methoxy-3-methylphenyl)cyclohexyl)methyl)carbamoyl)cyclohexyl methylcarbamate]
CNC(=O)O[C@H]1CC[C@H](C(=O)N(C[C@H]2CC[C@H](c3cnc(OC)c(Cl)c3)CC2)c2cccc(-c3cnn(C4CC4)c3)c2)CC1 [Compound 5.11, trans-4-(((trans-4-(5-Chloro-6-methoxypyridin-3-yl)cyclohexyl)methyl)(3-(1-cyclopropyl-1H-pyrazol-4-yl)phenyl)carbamoyl)cyclohexyl methylcarbamate]
CNC(=O)O[C@H]1CC[C@H](C(=O)N(C[C@H]2CC[C@H](c3ccc(OC)c(C)c3)CC2)c2cc(-c3cnn(C(C)C)c3)ccn2)CC1 [Compound 5.12, trans-4-((4-(1-Isopropyl-1H-pyrazol-4-yl)pyridin-2-yl)((trans-4-(4-methoxy-3-methylphenyl)cyclohexyl)methyl)carbamoyl)cyclohexyl methylcarbamate]
CNC(=O)O[C@H]1CC[C@H](C(=O)N(C[C@H]2CC[C@H](c3ccc(OC)c(C)n3)CC2)c2cc(-c3cnn(C4CC4)c3)ccn2)CC1 [Compound 5.13, trans-4-((4-(1-Cyclopropyl-1H-pyrazol-4-yl)pyridin-2-yl)((trans-4-(5-methoxy-6-methylpyridin-2-yl)cyclohexyl)methyl)carbamoyl)cyclohexyl methylcarbamate]
CNC(=O)O[C@H]1CC[C@H](C(=O)N(C[C@H]2CC[C@H](c3ccc(OC)c(C#N)c3)CC2)c2cccc(-c3cnn(C4CC4)c3)c2)CC1 [Compound 5.14, trans-4-(((trans-4-(3-Cyano-4-methoxyphenyl)cyclohexyl)methyl)(3-(1-cyclopropyl-1H-pyrazol-4-yl)phenyl)carbamoyl)cyclohexyl methylcarbamate]
CNC(=O)O[C@H]1CC[C@H](C(=O)N(C[C@H]2CC[C@H](c3ccc(OC)c(C#N)c3)CC2)c2cccc(-c3cnn(C(C)C)c3)c2)CC1 [Compound 5.15, trans-4-(((trans-4-(3-Cyano-4-methoxyphenyl)cyclohexyl)methyl)(3-(1-Isopropyl-1H-pyrazol-4-yl)phenyl)carbamoyl)cyclohexyl methylcarbamate]
CNC(=O)O[C@H]1CC[C@H](C(=O)N(C[C@H]2CC[C@H](c3cnc(OC)c(C)c3)CC2)c2cccc(-c3cnn(C4CC4)c3)c2)CC1 [Compound 5.16, trans-4-((3-(1-Cyclopropyl-1H-pyrazol-4-yl)phenyl)((trans-4-(6-methoxy-5-methylpyridin-3-yl)cyclohexyl)methyl)carbamoyl)cyclohexyl methylcarbamate]

Reference: patent US20220089575A1, “FARNESOID X RECEPTOR AGONISTS AND USES THEREOF” (Metacrine, Inc., priority 2017, published 2022)
